Reference: ChEMBL document CHEMBL1201862, “PubChem BioAssay data set” (2004)
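Protocol summary: plate cells (96-well), add compound at 5 concentrations, incubate 48 h, interpolate endpoints linearly. The concentration for 50% growth inhibition is given as GI50.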 Activity calls are given as the source filed them. Rule as the data show it: active = GI50 up to about 1.1 µM and inactive = higher.

Columns and labels:
Assay in all cases: growth of human tumour cells (NCI), 48 h
ACHN = test system: ACHN
CAKI-1 = test system: CAKI-1
COLO 205 = test system: COLO 205
HL-60 = test system: HL-60
HOP-62 = test system: HOP-62
KM12 = test system: KM12
MOLT-4 = test system: MOLT-4
NCI-H226 = test system: NCI-H226
OVCAR-4 = test system: OVCAR-4
OVCAR-5 = test system: OVCAR-5
OVCAR-8 = test system: OVCAR-8
RPMI-8226 = test system: RPMI-8226
SK-MEL-2 = test system: SK-MEL-2
SK-MEL-5 = test system: SK-MEL-5
SNB-19 = test system: SNB-19
TK-10 = test system: TK-10
UACC-257 = test system: UACC-257
A498 = test system: A498

| Structure (SMILES) | GI50 (ACHN) | GI50 (CAKI-1) | GI50 (COLO 205) | GI50 (HL-60) | GI50 (HOP-62) | GI50 (KM12) | GI50 (MOLT-4) | GI50 (NCI-H226) | GI50 (OVCAR-4) | GI50 (OVCAR-5) | GI50 (OVCAR-8) | GI50 (RPMI-8226) | GI50 (SK-MEL-2) | GI50 (SK-MEL-5) | GI50 (SNB-19) | GI50 (TK-10) | GI50 (UACC-257) | GI50 (A498) |
| --- | --- | --- | --- | --- | --- | --- | --- | --- | --- | --- | --- | --- | --- | --- | --- | --- | --- | --- |
| COc1cc(C=C2C(=O)NC(=O)NC2=O)cc(OC)c1OC | > 100 µM (inactive) | > 100 µM (inactive) | > 100 µM (inactive) | > 100 µM (inactive) | > 100 µM (inactive) | > 100 µM (inactive) | > 100 µM (inactive) | > 100 µM (inactive) | > 100 µM (inactive) | > 100 µM (inactive) | > 100 µM (inactive) | > 100 µM (inactive) | > 100 µM (inactive) | > 100 µM (inactive) | > 100 µM (inactive) | > 100 µM (inactive) | > 100 µM (inactive) | – |
| CCOC(=O)C12CN(C34CC5CC(CC(C5)C3)C4)CC(C(=O)OCC)(C1=O)C(c1ccccc1)OC2c1ccccc1 (centres undefined) | > 100 µM (inactive) | – | > 100 µM (inactive) | 9.25 µM (inactive) | > 100 µM (inactive) | > 100 µM (inactive) | 35.6 µM (inactive) | 89.7 µM (inactive) | 23 µM (inactive) | > 100 µM (inactive) | > 100 µM (inactive) | 16.5 µM (inactive) | > 100 µM (inactive) | 94.8 µM (inactive) | > 100 µM (inactive) | > 100 µM (inactive) | > 100 µM (inactive) | > 100 µM (inactive) |
| CCOC(=O)C(C(CC(=O)OC)NC(=O)OCc1ccccc1)C1(C)OCCO1 (centres undefined) | > 100 µM (inactive) | – | > 100 µM (inactive) | > 100 µM (inactive) | > 100 µM (inactive) | – | > 100 µM (inactive) | > 100 µM (inactive) | > 100 µM (inactive) | – | > 100 µM (inactive) | > 100 µM (inactive) | > 100 µM (inactive) | > 100 µM (inactive) | > 100 µM (inactive) | > 100 µM (inactive) | > 100 µM (inactive) | > 100 µM (inactive) |
| CCCCN(CCCC)C(=Nc1ccccc1)N(CCCC)CCCC | 3.55 µM (inactive) | – | 2.77 µM (inactive) | 1.79 µM (inactive) | 6.87 µM (inactive) | 3.7 µM (inactive) | 2.72 µM (inactive) | – | – | 5.78 µM (inactive) | 9.25 µM (inactive) | 1.8 µM (inactive) | 6.64 µM (inactive) | – | 6.81 µM (inactive) | 10.1 µM (inactive) | 7.41 µM (inactive) | 9.62 µM (inactive) |
| Cc1c(-c2coc(-c3ccc([N+](=O)[O-])cc3)n2)c(=O)n(-c2ccccc2)n1C | > 100 µM (inactive) | – | > 100 µM (inactive) | > 100 µM (inactive) | > 100 µM (inactive) | > 100 µM (inactive) | > 100 µM (inactive) | > 100 µM (inactive) | > 100 µM (inactive) | > 100 µM (inactive) | > 100 µM (inactive) | > 100 µM (inactive) | > 100 µM (inactive) | > 100 µM (inactive) | – | > 100 µM (inactive) | > 100 µM (inactive) | > 100 µM (inactive) |
| Nc1n/c(=N\c2ccccc2)ss1 | > 100 µM (inactive) | > 100 µM (inactive) | > 100 µM (inactive) | 19.9 µM (inactive) | > 100 µM (inactive) | > 100 µM (inactive) | > 100 µM (inactive) | > 100 µM (inactive) | > 100 µM (inactive) | > 100 µM (inactive) | > 100 µM (inactive) | > 100 µM (inactive) | – | > 100 µM (inactive) | > 100 µM (inactive) | > 100 µM (inactive) | > 100 µM (inactive) | > 100 µM (inactive) |
| O=C(c1ccccc1)C1S(=O)(=O)OCCOS1(=O)=O | – | > 100 µM (inactive) | > 100 µM (inactive) | > 100 µM (inactive) | > 100 µM (inactive) | > 100 µM (inactive) | > 10 µM (inactive) | – | > 100 µM (inactive) | – | > 100 µM (inactive) | > 100 µM (inactive) | > 100 µM (inactive) | > 100 µM (inactive) | > 100 µM (inactive) | > 100 µM (inactive) | > 100 µM (inactive) | – |
| Cc1ccc(NC(=O)OCC(COc2ccc(Cl)cc2Cl)OC(=O)Nc2ccc(C)cc2)cc1 (centres undefined) | > 100 µM (inactive) | < 0.01 µM (active) | > 100 µM (inactive) | – | > 100 µM (inactive) | > 100 µM (inactive) | – | 46.3 µM (inactive) | 33.2 µM (inactive) | > 100 µM (inactive) | 12.5 µM (inactive) | > 100 µM (inactive) | > 100 µM (inactive) | – | 47.6 µM (inactive) | – | > 100 µM (inactive) | > 100 µM (inactive) |
| CCOC(=O)CC(=O)Sc1ccccc1 | 23.1 µM (inactive) | – | 25.9 µM (inactive) | 13.4 µM (inactive) | 27.1 µM (inactive) | 25.6 µM (inactive) | 11 µM (inactive) | 27.2 µM (inactive) | 37.7 µM (inactive) | 36.4 µM (inactive) | 16.9 µM (inactive) | 17.7 µM (inactive) | 25.4 µM (inactive) | 17.3 µM (inactive) | 28.2 µM (inactive) | 38.3 µM (inactive) | 28.1 µM (inactive) | 15.8 µM (inactive) |
| COc1ccccc1NC(=O)CC(=O)n1nc(C)c(/N=N/c2ccccc2C(=O)O)c1C | – | 47.1 µM (inactive) | > 100 µM (inactive) | > 100 µM (inactive) | 85.9 µM (inactive) | > 100 µM (inactive) | > 100 µM (inactive) | – | > 100 µM (inactive) | > 100 µM (inactive) | > 100 µM (inactive) | > 100 µM (inactive) | > 100 µM (inactive) | 68.1 µM (inactive) | > 100 µM (inactive) | > 100 µM (inactive) | > 100 µM (inactive) | 90.4 µM (inactive) |
| CC(=O)OCCC(O[Si](c1ccccc1)(c1ccccc1)C(C)(C)C)C(C)(C)O (centres undefined) | 29.4 µM (inactive) | – | 15.8 µM (inactive) | – | – | 23.3 µM (inactive) | 24 µM (inactive) | 19.5 µM (inactive) | 64.1 µM (inactive) | > 100 µM (inactive) | 38.9 µM (inactive) | 23.9 µM (inactive) | 75 µM (inactive) | 51.6 µM (inactive) | 63.1 µM (inactive) | 34.4 µM (inactive) | 26.5 µM (inactive) | > 100 µM (inactive) |
| COC(=O)c1nc(NC#N)nc(O)c1C | > 73.6 µM (inactive) | > 77.3 µM (inactive) | > 100 µM (inactive) | > 100 µM (inactive) | > 100 µM (inactive) | > 100 µM (inactive) | > 100 µM (inactive) | – | > 100 µM (inactive) | > 100 µM (inactive) | > 100 µM (inactive) | 98.9 µM (inactive) | > 100 µM (inactive) | > 100 µM (inactive) | > 67.9 µM (inactive) | > 100 µM (inactive) | > 100 µM (inactive) | > 100 µM (inactive) |
| CC(C)(C)CC(C)(C)NCC(O)COc1ccc(C(C)(C)c2ccc(OCC(O)CNC(C)(C)CC(C)(C)C)cc2)cc1 (centres undefined) | 1.77 µM (inactive) | 1.75 µM (inactive) | 0.376 µM (active) | 1.46 µM (inactive) | 1.77 µM (inactive) | 1.56 µM (inactive) | 0.34 µM (active) | 1.97 µM (inactive) | 2.01 µM (inactive) | 1.88 µM (inactive) | 1.64 µM (inactive) | 1.46 µM (inactive) | 1.84 µM (inactive) | 1.32 µM (inactive) | 1.64 µM (inactive) | – | – | 1.58 µM (inactive) |
| O=C1C2CCC(C2)C12CC1(c3ccccc3)C(=O)c3ccccc3N1O2 (centres undefined) | > 100 µM (inactive) | – | > 100 µM (inactive) | 42.1 µM (inactive) | > 100 µM (inactive) | – | 42.6 µM (inactive) | > 100 µM (inactive) | 75.5 µM (inactive) | – | > 100 µM (inactive) | 58.9 µM (inactive) | – | > 100 µM (inactive) | > 100 µM (inactive) | – | > 100 µM (inactive) | > 100 µM (inactive) |
| C[C@@H](NC1CCCC[C@@H]1O)c1ccccc1 (some centres undefined) | > 100 µM (inactive) | > 100 µM (inactive) | > 100 µM (inactive) | > 100 µM (inactive) | > 100 µM (inactive) | > 100 µM (inactive) | > 100 µM (inactive) | > 100 µM (inactive) | > 100 µM (inactive) | > 100 µM (inactive) | > 100 µM (inactive) | > 100 µM (inactive) | > 100 µM (inactive) | > 100 µM (inactive) | > 100 µM (inactive) | > 100 µM (inactive) | > 100 µM (inactive) | – |
| CC/C=C/c1cc2cc[nH]c2c2c1C(C)C[C@@H]2C (some centres undefined) | 73.5 µM (inactive) | 32.8 µM (inactive) | 18.2 µM (inactive) | 26.7 µM (inactive) | – | 19.8 µM (inactive) | 18.8 µM (inactive) | 15.1 µM (inactive) | – | – | 26.1 µM (inactive) | 21.6 µM (inactive) | – | 21.6 µM (inactive) | – | 53.6 µM (inactive) | 32.8 µM (inactive) | 16.3 µM (inactive) |
| CC(=O)OC(C[C@H](C)[C@@H]1CC[C@]2(C)C3=CCC4C(C)(C)C(=O)CC[C@]4(C)C3CCC12C)C1OC1(C)C (some centres undefined) | 11.5 µM (inactive) | – | 19.9 µM (inactive) | 7.29 µM (inactive) | 20.4 µM (inactive) | 20 µM (inactive) | 24.5 µM (inactive) | 13.6 µM (inactive) | 28 µM (inactive) | 16.7 µM (inactive) | 28.8 µM (inactive) | 16.7 µM (inactive) | 45.1 µM (inactive) | – | 39.6 µM (inactive) | 19.1 µM (inactive) | 20.3 µM (inactive) | 17.1 µM (inactive) |
